Reference: PubChem BioAssay (NCI)
Where “and” joins values, the source holds several entries; their conditions need not be identical. Equal values may be shown once.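 48-hour exposure; five concentrations; linearly interpolated endpoints. The concentration for 50% growth inhibition is given as GI50. At the TGI there is no net growth.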

Columns and labels:
Assay in all cases: growth of human tumour cells (NCI), 48 h
OVCAR-4 ovarian = tested on: OVCAR-4 ovarian
MOLT-4 leukemia = tested on: MOLT-4 leukemia
SK-OV-3 ovarian = tested on: SK-OV-3 ovarian
KM12 colon = tested on: KM12 colon
MALME-3M melanoma = tested on: MALME-3M melanoma
U251 CNS = tested on: U251 CNS
HCC-2998 colon = tested on: HCC-2998 colon
CAKI-1 renal = tested on: CAKI-1 renal
TK-10 renal = tested on: TK-10 renal
MDA-MB-435 = tested on: MDA-MB-435

SMILES | TGI (OVCAR-4 ovarian) [µM] | TGI (MOLT-4 leukemia) [µM] | TGI (SK-OV-3 ovarian) [µM] | TGI (KM12 colon) [µM] | TGI (MALME-3M melanoma) [µM] | TGI (U251 CNS) [µM] | TGI (HCC-2998 colon) [µM] | TGI (CAKI-1 renal) [µM] | TGI (TK-10 renal) [µM] | GI50 (OVCAR-4 ovarian) [µM] | GI50 (MDA-MB-435) [µM] | TGI (MDA-MB-435) [µM] | GI50 (MOLT-4 leukemia) [µM] | GI50 (SK-OV-3 ovarian) [µM] | GI50 (KM12 colon) [µM] | GI50 (U251 CNS) [µM] | GI50 (HCC-2998 colon) [µM] | GI50 (CAKI-1 renal) [µM] | GI50 (TK-10 renal) [µM] | GI50 (MALME-3M melanoma)
CC(C)(C)C#COC(=O)c1ccccc1 | > 100 | > 100 | > 100 | > 100 | > 100 | > 100 | > 100 | > 100 |  |  |  |  |  |  |  |  |  |  |  | 
O=C1CC23CCCCCCCCCCC2(C1)CC(=O)C3 (centres undefined) |  | 56.2 | 65.2 | 45 | 76.1 | 75.6 | > 100 |  | > 100 |  |  |  |  |  |  |  |  |  |  | 
COc1ccc(-c2ccc(C3CC(c4ccccc4)=NN3)o2)c([N+](=O)[O-])c1 (centres undefined) | > 100 | 72.9 | > 100 | > 100 |  | > 100 | 58.5 | > 100 | 63.8 | 43.5 | 32.4 | > 100 | 22.9 | 42.5 | 27.3 | 57.3 | 25.5 | 34.4 | 22.1 | 
O=c1c(Cc2ccc3c(c2)OCO3)nnc2sc(-c3cc(F)c(Cl)cc3Cl)nn12 | > 100 | > 100 |  | > 100 | 85.3 | > 100 |  |  | 65 | 59.2 | 52.9 | > 100 | 36 |  | 35.6 | 35.7 |  |  | 22.6 | 24.7 µM
COc1cc2c(cc1C)NC(=O)/C2=C/c1ccnc2ccccc12 |  | > 50 | > 50 | > 50 |  | 35.9 | > 50 | > 50 | > 50 |  | 11.4 | > 50 | > 50 | 12.6 | 26.2 | 9.92 | 35.7 | 16.2 | 35.8 | 
C1=CC(=P(c2ccccc2)(c2ccccc2)c2ccccc2)C=C1 | 31.5 | 23.4 | 35.3 | 24.4 | 17.4 |  | 24.3 | 32.3 | 50.9 |  |  |  |  |  |  |  |  |  |  | 
O=C(CC1=Nc2nnc(CCCCCCCc3nnc4n3C(=O)C(CC(=O)c3ccc5ccccc5c3)=N4)n2C1=O)c1ccc2ccccc2c1 | > 100 | > 100 | > 100 | > 100 | > 100 | > 100 | > 100 | > 100 | > 100 |  |  |  |  |  |  |  |  |  |  | 
COc1ccc(-c2nc3ccccc3s2)cc1OC | > 100 | > 100 | 62.9 | > 100 |  | > 100 |  |  |  |  |  | > 100 |  |  |  |  |  |  |  | 
Cc1cc2c(c(C(=O)O)c1C)-c1cccc(Cl)c1C2=O | > 100 | > 100 | > 100 | > 100 | > 100 | > 100 | > 100 | > 100 | > 100 |  |  |  |  |  |  |  |  |  |  | 
c1ccc2c(c1)[nH]c1c2nc2ccccn21 | > 100 | > 100 | > 100 | > 100 | > 100 | > 100 | > 100 | > 100 | > 100 |  |  |  |  |  |  |  |  |  |  | 27.8 µM and > 100 µM
Cc1c(C)c([N+](=O)[O-])c2c(c1N)C(=O)c1ccccc1C2=O |  | > 100 | > 100 | > 100 | > 100 | > 100 | > 100 |  | > 100 |  |  |  |  |  |  |  |  |  |  | 
CC1=NN(c2cccc(Cl)c2)C(=O)/C1=C\c1cn(CC(O)CN2CCCCC2)c2ccccc12 (centres undefined) | 28.1 | 28.8 | 26.6 | 8.26 |  | 14 | 19.2 | 5.33 | 21.3 | 13.3 | 1.89 | 3.74 | 4.76 | 12.9 | 2.92 | 3.64 | 6.12 | 1.83 | 7.51 | 
O=C(Nc1ccc(Cl)cc1C(F)(F)F)C(=O)Nn1c(=S)[nH]c2ccccc2c1=O | > 100 | > 100 | > 100 | > 100 |  | > 100 | > 100 | > 100 | > 100 |  |  | > 100 |  |  |  |  |  |  |  | 
CC(=O)N1[C@H](C(=O)O)CS[C@H]1c1ccc(F)cc1 | > 100 | > 100 |  |  | > 100 |  | > 100 | > 100 | > 100 |  |  |  |  |  |  |  |  |  |  | 
C=C1C(=O)O[C@@H]2/C=C(/C)[C@@H](OC(C)=O)C/C=C(\C)C(O)[C@@H](OC(=O)/C(C)=C\C)C12 (some centres undefined) | > 100 | 74.6 | > 100 | > 100 |  | > 100 | 55.4 | 54.4 | > 100 |  |  | 57.5 |  |  |  |  |  |  |  | 
Cc1cccc(C)c1NC(=O)C(=O)Cc1nc2ccccc2s1 | > 100 |  | > 100 | > 100 | > 100 | > 100 | > 100 | > 100 | > 100 |  |  |  |  |  |  |  |  |  |  | 
O=c1c(-c2ccc3c(c2)OCO3)coc2c3c(ccc12)OCO3 | 70.6 | > 100 | 40.9 | > 100 |  | > 100 | > 100 | > 100 | 36.8 |  |  | > 100 |  |  |  |  |  |  |  | 
COc1ccc(-c2ccc(CC(=O)O)cc2)cc1OC | > 100 | > 100 | > 100 | > 100 | > 100 | > 100 |  | > 100 | > 100 |  |  |  |  |  |  |  |  |  |  | 
CC(=O)Nc1ccc(C2CC(c3ccc([N+](=O)[O-])cc3)=Nc3ccccc3S2)cc1 (centres undefined) | 42.2 | 39.6 | 87.8 | 30.6 | 35.1 | 29.8 |  | 77.7 | 44.4 |  |  |  |  |  |  |  |  |  |  | 
CN(C)C(=S)/N=c1\ss/c(=N\C(=S)N(C)C)n1-c1cccc(Cl)c1 | > 100 | > 100 |  | > 100 | > 100 | > 100 | > 100 | > 100 | > 100 |  |  |  |  |  |  |  |  |  |  | 
O=C(Nc1sc2c(c1C(=O)O)CCCC2)c1ccco1 |  | > 50 | > 50 | > 50 |  | > 50 |  | > 50 | > 50 |  | > 50 | > 50 | > 50 | > 50 | 29.5 | 16.4 |  | 44.1 | > 50 | 
